Reference: PubChem BioAssay (NCI)
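The compound was tested at five concentrations on cells cultured in 96-well plates, with a 48-hour exposure period. TGI denotes the concentration required for complete inhibition of growth.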

Key:
Experiment in all cases: NCI-60 cell line screen, 48 h
[1] = tested on: M14 melanoma
[2] = tested on: SNB-19 CNS
[3] = tested on: NCI-H460 lung
[4] = tested on: CAKI-1 renal
[5] = tested on: MCF7 breast
[6] = tested on: CCRF-CEM leukemia
[7] = tested on: SK-MEL-5 melanoma
[8] = tested on: EKVX NSCLC
[9] = tested on: UO-31 renal
[10] = tested on: KM12 colon

O=S(=O)(c1ccc(NC2=NC(c3ccc(O)cc3)(c3ccccc3O)c3ccccc32)cc1)c1ccc(NC2=NC(c3ccc(O)cc3)(c3ccccc3O)c3ccccc32)cc1 (stereo not given)
TGI [1]: > 29.2 µM | TGI [2]: > 100 µM | TGI [3]: 47.5 µM | TGI [4]: 59.4 µM | TGI [5]: > 100 µM | TGI [6]: > 100 µM | TGI [7]: > 100 µM | TGI [8]: > 52.6 µM | TGI [9]: > 100 µM | TGI [10]: > 21.4 µM

COc1ccc2c3c1OC1C(=O)C=CC4(CC2)N(C)CCC314 (stereo not given)
TGI [1]: 49.6 µM | TGI [2]: 76.9 µM | TGI [3]: 71.1 µM | TGI [4]: > 100 µM | TGI [5]: > 100 µM | TGI [6]: 51.5 µM | TGI [7]: 24.4 µM | TGI [8]: 92.8 µM | TGI [9]: 78.5 µM | TGI [10]: 43.4 µM

Cc1ccc2c(=O)cc(-c3ccc(Cl)s3)[nH]c2n1
TGI [1]: > 100 µM | TGI [2]: > 100 µM | TGI [3]: > 100 µM | TGI [4]: > 100 µM | TGI [5]: > 100 µM | TGI [6]: > 100 µM | TGI [7]: 17.7 µM | TGI [8]: > 100 µM | TGI [9]: 0.301 µM | TGI [10]: > 100 µM

CCN(CC)N1C(=O)[N+](CC)(CC)N=C1[O-]
TGI [1]: > 100 µM | TGI [2]: > 100 µM | TGI [3]: > 100 µM | TGI [4]: > 100 µM | TGI [5]: > 100 µM | TGI [6]: > 100 µM | TGI [7]: > 100 µM | TGI [8]: > 100 µM | TGI [9]: > 100 µM | TGI [10]: > 100 µM

C[N+](C)(C)c1ccc(C(N)C(=O)O)cc1 (stereo not given)
TGI [1]: > 100 µM | TGI [2]: > 100 µM | TGI [3]: > 100 µM | TGI [4]: > 100 µM | TGI [5]: > 100 µM | TGI [6]: > 100 µM | TGI [7]: > 100 µM | TGI [8]: > 100 µM | TGI [9]: > 100 µM | TGI [10]: > 100 µM

COC(=O)C1(Cc2ccc3c(c2)CCC3)Cc2ccccc2C1O (stereo not given)
TGI [1]: 34.9 µM | TGI [2]: 35.6 µM | TGI [3]: 38.1 µM | TGI [4]: 52.3 µM | TGI [5]: 49.6 µM | TGI [6]: 47.5 µM | TGI [7]: 29.8 µM | TGI [8]: 69.4 µM | TGI [9]: 29.2 µM | TGI [10]: 47.6 µM

C[n+]1cccc2c(=O)c3ccccc3oc21
TGI [1]: > 100 µM | TGI [2]: > 100 µM | TGI [3]: > 100 µM | TGI [4]: > 100 µM | TGI [5]: > 100 µM | TGI [6]: > 100 µM | TGI [7]: > 100 µM | TGI [8]: > 100 µM | TGI [9]: > 100 µM | TGI [10]: > 100 µM

O=C1CCCCC/C1=C\c1ccc([N+](=O)[O-])cc1
TGI [1]: > 100 µM | TGI [2]: > 100 µM | TGI [3]: 39.4 µM | TGI [4]: 59.9 µM | TGI [5]: > 100 µM | TGI [6]: 70.5 µM | TGI [7]: 43.7 µM | TGI [8]: > 100 µM | TGI [9]: 79.7 µM | TGI [10]: 37.6 µM

CC(=C(c1ccccc1)c1ccccc1)N1C(=O)CC(=O)N1C
TGI [1]: > 100 µM | TGI [2]: > 100 µM | TGI [3]: > 100 µM | TGI [4]: 64.8 µM | TGI [5]: > 100 µM | TGI [6]: 78.2 µM | TGI [7]: > 100 µM | TGI [8]: > 100 µM | TGI [9]: 31.5 µM | TGI [10]: > 100 µM

COc1cccc(CCN2CCN(CCCc3ccccc3)CC2)c1
TGI [1]: 60.6 µM | TGI [2]: > 100 µM | TGI [3]: > 100 µM | TGI [4]: > 100 µM | TGI [5]: > 100 µM | TGI [6]: > 100 µM | TGI [7]: 40.6 µM | TGI [8]: > 100 µM | TGI [9]: > 100 µM | TGI [10]: > 100 µM

CN(C)c1nc(N)nc(CS)n1
TGI [1]: > 100 µM | TGI [2]: > 100 µM | TGI [3]: > 100 µM | TGI [4]: > 100 µM | TGI [5]: > 100 µM | TGI [6]: 98.9 µM | TGI [7]: > 100 µM | TGI [8]: > 100 µM | TGI [9]: > 100 µM | TGI [10]: > 100 µM

O=C1C(Cl)=C(OCCCl)C(=O)c2c(O)ccc(O)c21
TGI [1]: 4.19 µM | TGI [2]: 32.7 µM | TGI [3]: 40.7 µM | TGI [4]: 3.93 µM | TGI [5]: 5.19 µM | TGI [6]: 0.381 µM | TGI [7]: 6.91 µM | TGI [8]: 34.2 µM | TGI [9]: 11 µM | TGI [10]: 40.5 µM

CCNC(=S)N=Nc1c(O)[nH]c2ccc([N+](=O)[O-])cc12
TGI [1]: > 100 µM | TGI [2]: > 100 µM | TGI [3]: > 100 µM | TGI [4]: > 100 µM | TGI [5]: > 100 µM | TGI [6]: > 100 µM | TGI [7]: > 100 µM | TGI [8]: > 100 µM | TGI [9]: > 100 µM | TGI [10]: > 100 µM

O=C1C[C@@H](C(=O)OCc2ccccc2)NC(=O)C[C@@H](C(=O)OCc2ccccc2)NC(=O)C[C@@H](C(=O)OCc2ccccc2)N1
TGI [1]: > 100 µM | TGI [2]: > 100 µM | TGI [3]: > 100 µM | TGI [4]: > 100 µM | TGI [5]: > 100 µM | TGI [6]: 2.01 µM | TGI [7]: > 100 µM | TGI [8]: > 100 µM | TGI [9]: > 100 µM | TGI [10]: > 100 µM

Cc1ccc(OCC2OC(n3cnc4c(Cl)nc(N)nc43)CC2Oc2ccc(C)cc2)cc1 (stereo not given)
TGI [1]: > 100 µM | TGI [2]: > 100 µM | TGI [3]: > 100 µM | TGI [4]: 20.3 µM | TGI [5]: > 13.3 µM | TGI [6]: > 100 µM | TGI [7]: > 100 µM | TGI [8]: > 59.3 µM | TGI [9]: 13.3 µM | TGI [10]: > 100 µM

Cc1ccc(/C(O)=C/c2nc3ccccc3sc2=O)c(C)c1
TGI [1]: > 100 µM | TGI [2]: > 100 µM | TGI [3]: > 100 µM | TGI [4]: > 100 µM | TGI [5]: > 100 µM | TGI [6]: > 100 µM | TGI [7]: > 100 µM | TGI [8]: > 100 µM | TGI [9]: > 100 µM | TGI [10]: > 100 µM

Cc1ccc([S@](=O)c2occc2C=O)cc1
TGI [1]: 20.7 µM | TGI [2]: 18 µM | TGI [3]: 33.8 µM | TGI [4]: 30.7 µM | TGI [5]: 13.3 µM | TGI [6]: 4.4 µM | TGI [7]: 23.1 µM | TGI [8]: 43.6 µM | TGI [9]: 23.2 µM | TGI [10]: 31.5 µM

COC(=O)C1CCC(=S)N1C(=O)c1ccccc1 (stereo not given)
TGI [1]: > 100 µM | TGI [2]: > 100 µM | TGI [3]: > 100 µM | TGI [4]: > 100 µM | TGI [5]: > 100 µM | TGI [6]: > 100 µM | TGI [7]: > 100 µM | TGI [8]: > 100 µM | TGI [9]: > 100 µM | TGI [10]: > 100 µM

CC(C)=NN/C(=N\S(=O)(=O)c1ccc(Oc2cccc(Cl)c2C#N)cc1)Nc1ccc(Cl)cc1
TGI [1]: > 100 µM | TGI [2]: > 100 µM | TGI [3]: > 100 µM | TGI [4]: > 100 µM | TGI [5]: > 100 µM | TGI [6]: > 100 µM | TGI [7]: > 100 µM | TGI [8]: > 100 µM | TGI [9]: > 100 µM | TGI [10]: > 100 µM

CC(NC(=O)C(NC(=O)CNC(=O)OC(C)(C)C)C(C)C)C(=O)Oc1c(Cl)c(Cl)c(Cl)c(Cl)c1Cl (stereo not given)
TGI [1]: 39.5 µM | TGI [2]: 96 µM | TGI [3]: 39.3 µM | TGI [4]: 39.3 µM | TGI [5]: 74.1 µM | TGI [6]: > 100 µM | TGI [7]: 33.9 µM | TGI [8]: 83.8 µM | TGI [9]: 29.5 µM | TGI [10]: 30.4 µM

OCC(O)C(O)C(O)C(O)c1nc2ccc(Cl)cc2[nH]1 (stereo not given)
TGI [1]: > 100 µM | TGI [2]: > 100 µM | TGI [3]: > 100 µM | TGI [4]: > 100 µM | TGI [5]: > 100 µM | TGI [6]: > 100 µM | TGI [7]: > 100 µM | TGI [8]: > 100 µM | TGI [9]: > 100 µM | TGI [10]: > 100 µM

CC1C(=O)N(c2ccccc2)NC12CCCc1ccccc12 (stereo not given)
TGI [1]: > 100 µM | TGI [2]: > 100 µM | TGI [3]: > 100 µM | TGI [4]: > 100 µM | TGI [5]: > 100 µM | TGI [6]: > 100 µM | TGI [7]: > 100 µM | TGI [8]: > 100 µM | TGI [9]: > 100 µM | TGI [10]: > 100 µM

OC1(c2ccccc2)CCN(Cc2c[nH]c3ccccc23)CC1
TGI [1]: 35 µM | TGI [2]: > 100 µM | TGI [3]: > 100 µM | TGI [4]: > 100 µM | TGI [5]: > 100 µM | TGI [6]: > 100 µM | TGI [7]: > 100 µM | TGI [8]: > 100 µM | TGI [9]: > 100 µM | TGI [10]: > 100 µM

CC(C)CNc1nc2ncnc(N)c2[nH]1
TGI [1]: > 100 µM | TGI [2]: > 100 µM | TGI [3]: > 100 µM | TGI [4]: > 100 µM | TGI [5]: > 100 µM | TGI [6]: > 100 µM | TGI [7]: > 100 µM | TGI [8]: > 100 µM | TGI [9]: > 100 µM | TGI [10]: > 100 µM

OCCO/N=C1\C(c2c(O)[nH]c3ccccc23)=Nc2ccccc21
TGI [1]: > 100 µM | TGI [2]: > 100 µM | TGI [3]: > 100 µM | TGI [4]: > 100 µM | TGI [5]: > 100 µM | TGI [6]: > 100 µM | TGI [7]: > 100 µM | TGI [8]: > 100 µM | TGI [9]: > 100 µM | TGI [10]: > 100 µM

CC1(C)N/C(=C\C=O)C(C)(C)N1O
TGI [1]: > 100 µM | TGI [2]: > 100 µM | TGI [3]: > 100 µM | TGI [4]: > 100 µM | TGI [5]: > 100 µM | TGI [6]: > 100 µM | TGI [7]: > 100 µM | TGI [8]: > 100 µM | TGI [9]: > 100 µM | TGI [10]: > 100 µM
